# Source: US20210260102A1, “TUNABLE IMMUNE RESPONSIVE BIODEGRADABLE ARGININE-BASED POLY(ESTER AMIDE)S AND METHODS OF MAKING AND USING SAME” (Cornell University, priority 2018, published 2021)
# Key:
# RAW 264.7 cells [1] = experiment: NO production of macrophages (Griess reagent); type: cell-based, murine; conditions: CAM (LPS+IFN-γ), 24 h
# RAW 264.7 cells [2] = experiment: Arginase activity assay of treated macrophages; conditions: 2 mg/mL, 24 h
# Description: 4×10^5 RAW 264.7 cells in each well were incubated in 400 μL DMEM media contains 10% FBS in 24 well plates for 24 h. […] For CAM or AAM group, treatments contained either 100 U/mL recombinant mouse interferon-γ (IFN-γ, 1.25×10^7 U/mg, Shenandoah Biotechnology, PA) plus 100 ng/mL lipopolysaccharide (LPS, Sigma-Aldrich) or 20 ng/mL recombinant mouse interleukin-4 (IL-4, Shenandoah Biotechnology, PA) respectively to induce different activation phenotype. Resting Macrophages, CAM and AAM incubated in DMEM contains 5% FBS without treatments were used as controls.
# The arginase activity assay is tested colorimetrically. The cells were washed with PBS and lysed by 200 μL 0.2% Triton X-100 in 20 mM Tris-HCl, pH 7.5 containing 20 g pepstatin A, 20 μg aprotinin and 20 μg leupeptin as protease inhibitors. After the cell was lysed, 200 μL 10 mM MnCl2 was added and the enzyme was activated for 10 minutes at 55° C. 100 μL aliquot of the activated lysate was mixed with 100 μL 0.5 M Arg and incubated at 37° C. for 1 h. […] After being cooled to room temperature, the absorbance of 200 μL mixture solution at 540 nm was tested in 96 well plates. […] The NO production and the arginase activity in three replicate wells of each condition were tested and the mean value was calculated with standard deviations.
# [3] = neutral pH; cited from earlier work
Compound,NO production of CAM (RAW 264.7 cells [1]; 1 mg/mL),NO production of CAM (RAW 264.7 cells [1]; 2 mg/mL),arginase activity of CAM (RAW 264.7 cells [2]),water solubility [3]
"N=C(N)NCCC[C@H](N)C(=O)O [Arg, L-arginine]",42.5 ± 2.6 µM,50.7 ± 1.1 µM,17.9±0.7 U,
N-nitro-L-arginine [NOArg],,,,~0.87 mg/mL
